From PMC6534212, “Synthesis and biological evaluation of 3–(4-aminophenyl)-coumarin derivatives as potential anti-Alzheimer’s disease agents” (Journal of Enzyme Inhibition and Medicinal Chemistry, 2019)
Entries after “also recorded” stand apart in the source; their conditions may differ.

Columns and labels:
zebrafish juveniles = assay: Model of exercise retardation, death and teratogenicity in zebrafish juveniles made of aluminium trichloride; settings: for Movement distance: 72 hpe, n=6; for Movement distance / Malformation rate / Mortality rate: mean ± SE; for Malformation rate / Mortality rate: after 72 h, n=90
Procedure: The 72 hpf zebrafish were placed in a petri dish, and the normal developing juveniles were selected under a microscope in a 12-well plate. The concentration of AlCl3 in the experiment was set to 0, 0.1, 0.5, 1.0, 5.0, 10.0, and 50.0 mg/L (prepared for aquaculture water), three replicate wells were set in each concentration group and then placed in a constant temperature incubator at 28 °C to continue the culture. The continuous drug solution was exposed for 3 days. The different concentrations of AlCl3 and the blank control group were placed in 48-well plates. Each well was juvenile fish developed to 72 h post-exposure (hpe) and added 0.5 mL of culture water and 8 juveniles were set in each experimental group. The well plate was placed in the dark box of the zebrafish behaviour analysis system. The fish was first adapted to 10 min at the beginning of the experiment. The trajectories of the juveniles in each group were collected using zeblab software for 10 min, recorded every 5 min, and exported by software. Then calculate the total distance of each group of zebrafish juveniles. The effects of different concentrations of aluminium trichloride on the death and teratogenicity of zebrafish juveniles were observed by microscopy.

[1] = tested on: aluminium trichloride-induced zebrafish juveniles; assay: Effects of compounds on aluminium trichloride-induced behavioural inhibition of zebrafish juveniles (Zebrobox); settings: for Total movement distance: mean ± SE, n=8; for Effect on behavioural inhibition of zebrafish induced by aluminium trichloride (in words): compared with the model group
Procedure: The most suitable modelling concentrations were chosen, and then the effect of the compounds on the behaviour of the aluminium trichloride-induced zebrafish juveniles was explored.
The 72 hpf zebrafish were placed in a petri dish, and the normal developing juveniles were selected under a microscope in a 12-well plate. […] The continuous drug solution was exposed for 3 days. […] Each well was juvenile fish developed to 72 h post-exposure (hpe) and added 0.5 mL of culture water and 8 juveniles were set in each experimental group. The well plate was placed in the dark box of the zebrafish behaviour analysis system. The fish was first adapted to 10 min at the beginning of the experiment. The trajectories of the juveniles in each group were collected using zeblab software for 10 min, recorded every 5 min, and exported by software. Then calculate the total distance of each group of zebrafish juveniles.
The zebrafish with 72 hpf after fertilisation is placed in a petri dish. Under normal conditions, the normal developing juvenile fish are selected in a 12-well plate, and 15 juveniles per hole are set. Control group (0.5% DMSO), model group (5.0 mg/L AlCl3), 5.0 mg/L AlCl3 + test compound 5 μg/mL group, 5.0 mg/L AlCl3 + test compound 10 μg/mL group, 5.0 mg/L AlCl3 + test compound 50 μg/mL group, 5.0 mg/L AlCl3 + test compound 100 μg/mL group, three duplicate wells were set at each concentration. After the administration, the zebrafish was placed in a constant temperature incubator at 28 °C to continue the culture for 3 days. Changing the liquid (aquaculture water) every 24 h and removing dead young fish.

[2] = target: T1, AChE from Electrophorus electricus (Electrophorus electricus, UniProt O42275); assay: biochemical; format: biochemical; settings: for IC50: AChE from Electrophorus electricus, mean ± SD (n=3); for AChE inhibitory activity (in words): verbal summary of Table 2; for Selectivity AChE/BuChE (in words): verbal summary of SI
T1 construct: purchased Macklin
Procedure: (§1) In the experiment, 0.05 mol/L phosphate buffered saline (PBS) of pH 8.0 was prepared first, and then the following solutions were prepared: 1.5 mmol/L Acetylthiocholine iodide (ATChI); 0.75 mmol/L 5, 5'-Dithiobis-(2-nitrobenzoic acid) (DTNB, Sigma Aldrich, St. Louis, MO); 0.2 U/mL Acetylcholinesterase (AChE, from […], Macklin); 0.5 U/mL Butyrylcholinesterase (BuChE, from equine serum, Aladdin, Shanghai, China); 1.5 mmol/L S-Butyrylthiocholine iodide (BTChI, Sigma Aldrich, St. Louis, MO). 4% sodium dodecyl sulphate (SDS) was prepared with secondary water. […] All solutions were stored in a refrigerator at 4 °C.
(§2) The AChE/BuChE inhibitory activity of the 3–(4-aminophenyl)-coumarin derivatives was determined by the method of Ellaman[28] with slight modifications. The experiment was divided into control group, sample blank group and sample group. Take a series of test tubes, the reagents were loaded in test tubes at the dose of Table 6. After incubation at 37 °C for 20 min, quickly add 1 mL of 4% SDS to stop the reaction. […] All experiments were run in triplicate. The absorbance was determined by UV spectrophotometer, and the inhibition rate of AChE and the IC50 value of each sample were calculated according to the formula. Inhibition rate % = {[(AC−AS)−ASB]/AC} ×100%, where AC (no sample added) is the absorbance of control group; AS is the absorbance of sample group; ASB (add sample solution but no substrate ATChI added) is the absorbance of sample blank group.

BuChE from equine serum = target: T2, BuChE from equine serum (Equus caballus, UniProt P81908); assay: biochemical; format: biochemical; settings: BuChE from equine serum; mean ± SD (n=3)
T2 construct: Butyrylcholinesterase (BuChE, from equine serum, Aladdin, Shanghai, China); purchased Aladdin, Shanghai, China; host or cells: equine serum
Procedure: as §1, §2
The method for determining BuChE is the same as the method for measuring AChE. The sample can be added with reference to Table 6, AChE is changed to BuChE, and the substrate ATChI is changed to substrate BTChI. The order of loading and the amount of loading are the same as Table 6. The absorbance was determined by UV spectrophotometer, and the inhibition rate of BuChE and the IC50 value of each sample were calculated according to the formula. The formula used is the same as AChE.

[3] = 5 mg/L compound + 5.0 mg/L AlCl3, 3 days
[4] = 10 mg/L compound + 5.0 mg/L AlCl3, 3 days
[5] = 50 mg/L compound + 5.0 mg/L AlCl3, 3 days
[6] = 100 mg/L compound + 5.0 mg/L AlCl3, 3 days

T1 sequence (O42275 24-633): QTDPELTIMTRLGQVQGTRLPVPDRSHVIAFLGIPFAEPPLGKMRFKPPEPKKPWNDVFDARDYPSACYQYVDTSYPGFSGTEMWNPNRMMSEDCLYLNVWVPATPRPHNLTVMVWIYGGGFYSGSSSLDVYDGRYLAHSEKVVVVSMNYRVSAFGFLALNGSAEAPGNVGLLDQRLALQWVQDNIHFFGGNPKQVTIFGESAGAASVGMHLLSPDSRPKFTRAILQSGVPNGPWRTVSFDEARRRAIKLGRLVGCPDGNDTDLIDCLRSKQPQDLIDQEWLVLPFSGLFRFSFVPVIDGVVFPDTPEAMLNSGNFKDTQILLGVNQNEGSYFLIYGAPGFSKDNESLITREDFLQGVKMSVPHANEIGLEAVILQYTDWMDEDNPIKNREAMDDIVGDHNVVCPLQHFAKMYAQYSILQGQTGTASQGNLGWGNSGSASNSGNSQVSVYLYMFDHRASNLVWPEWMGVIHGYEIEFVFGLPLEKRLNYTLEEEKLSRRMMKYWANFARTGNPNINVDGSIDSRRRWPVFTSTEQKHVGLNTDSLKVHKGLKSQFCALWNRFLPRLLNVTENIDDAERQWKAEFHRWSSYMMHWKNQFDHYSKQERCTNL
T2 sequence (P81908 whole entry): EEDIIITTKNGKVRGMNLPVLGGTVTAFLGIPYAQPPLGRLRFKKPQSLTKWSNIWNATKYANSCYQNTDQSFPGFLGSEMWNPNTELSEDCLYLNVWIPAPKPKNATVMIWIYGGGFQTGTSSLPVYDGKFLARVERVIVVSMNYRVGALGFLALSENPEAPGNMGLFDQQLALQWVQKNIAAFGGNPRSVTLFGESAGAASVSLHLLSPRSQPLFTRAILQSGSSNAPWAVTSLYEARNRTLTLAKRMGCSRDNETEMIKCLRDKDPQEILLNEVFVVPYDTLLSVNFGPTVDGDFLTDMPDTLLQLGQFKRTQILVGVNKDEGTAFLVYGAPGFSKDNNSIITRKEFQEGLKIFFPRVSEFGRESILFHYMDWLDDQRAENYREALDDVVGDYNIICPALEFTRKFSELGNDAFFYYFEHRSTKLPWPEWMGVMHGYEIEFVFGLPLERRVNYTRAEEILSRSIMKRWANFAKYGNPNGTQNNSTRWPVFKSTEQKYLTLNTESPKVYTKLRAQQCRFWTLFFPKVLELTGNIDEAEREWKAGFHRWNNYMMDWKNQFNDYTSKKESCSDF

## [Cl][Al]([Cl])[Cl] [AlCl3, aluminium trichloride]
Zebrafish juveniles; AlCl3 0.1 mg/L
  Movement distance: 292.4 ± 6.7 cm
  Malformation rate: 0.00 ± 0.00%
  Mortality rate: 0.00 ± 0.00%
Zebrafish juveniles; AlCl3 0.5 mg/L
  Movement distance: 236.8 ± 9.4 cm
  Malformation rate: 0.00 ± 0.00%
  Mortality rate: 0.00 ± 0.00%
Zebrafish juveniles; AlCl3 1.0 mg/L
  Movement distance: 224.3 ± 10.8 cm
  Malformation rate: 1.11 ± 0.17%
  Mortality rate: 0.00 ± 0.00%
Zebrafish juveniles; AlCl3 5.0 mg/L
  Movement distance: 181.3 ± 9.6 cm
  Malformation rate: 2.22 ± 0.17%
  Mortality rate: 1.11 ± 0.17%
Zebrafish juveniles; AlCl3 10.0 mg/L
  Movement distance: 204.6 ± 12.8 cm
  Malformation rate: 16.67 ± 0.29 %
  Mortality rate: 11.11 ± 0.17 %
Zebrafish juveniles; AlCl3 50.0 mg/L, after 24 h administration
  Death or malformation of zebrafish (in words): Most of the fish in the 50.0 mg/L group were dead or malformed
Zebrafish juveniles; AlCl3 50.0 mg/L
  Malformation rate: 100.00 ± 0.00 %
  Mortality rate: 100.00 ± 0.00 %
Zebrafish juveniles; AlCl3 50.0 mg/L, at 48 h
  Death of zebrafish (in words): all fish died

## COc1cccc2cc(-c3ccc(NC(=O)c4ccc(C(F)(F)F)cc4)cc3)c(=O)oc12 [Compound 4l, 3-[4-(4-trifluoromethyl-benzoylamino)-phenyl]-8-methoxy-coumarin]
[1]; [3]
  Total movement distance: 179.9 ± 10.1 cm
[1]; [4]
  Total movement distance: 194.6 ± 13.6 cm
[1]; [5]
  Total movement distance: 211.5 ± 20.2 cm
[1]; [6]
  Total movement distance: 184.8 ± 11.5 cm
[2]
  IC50: 5.6 ± 0.132 µM
  SI: selectivity index (IC50 BuChE/IC50 AChE): 0.772
  AChE inhibitory activity (in words): moderate to excellent AChE inhibitory activity
BuChE from equine serum
  IC50: 4.32 ± 0.685 µM

## COc1cccc2cc(-c3ccc(NC(=O)c4ccc(CCl)cc4)cc3)c(=O)oc12 [Compound 4m, 3-[4-(4-chloromethyl-benzoylamino)-phenyl]-8-methoxy-coumarin]
[1]; [3]
  Total movement distance: 198.3 ± 10.1 cm
[1]; [4]
  Total movement distance: 210.2 ± 6.0 cm
[1]; [5]
  Total movement distance: 230.8 ± 6.2 cm
[1]; [6]
  Total movement distance: 247.1 ± 12.3 cm
[1]; at 50.0 and 100.0 μg/mL concentration
  Effect on total distance of zebrafish juvenile movement (in words): significant therapeutic effect; also recorded: significant effects compared with the model group
[1]
  Effect on behavioural inhibition of zebrafish induced by aluminium trichloride (in words): certain therapeutic effects; also recorded: could alleviate the behavioural inhibition symptoms
[2]
  IC50: 0.091 ± 0.011 µM
  SI: selectivity index (IC50 BuChE/IC50 AChE): 452.637
  Selectivity AChE/BuChE (in words): highly selective for AChE
  AChE inhibitory activity (in words): moderate to excellent AChE inhibitory activity
BuChE from equine serum
  IC50: 41.2 ± 1.04 µM

## COc1cccc2cc(-c3ccc(NC(=O)c4cccc(Cl)c4Cl)cc3)c(=O)oc12 [Compound 4r, 3-[4-(2,3-dichloro-benzoylamino)-phenyl]-8-methoxy-coumarin]
[1]; [3]
  Total movement distance: 178 ± 11.2 cm
[1]; [4]
  Total movement distance: 182.4 ± 4.6 cm
[1]; [5]
  Total movement distance: 196.4 ± 11.7 cm
[1]; [6]
  Total movement distance: 194.4 ± 9.4 cm
[2]
  IC50: 19.7 ± 2.45 µM
  SI: selectivity index (IC50 BuChE/IC50 AChE): 0.220
BuChE from equine serum
  IC50: 4.33 ± 0.125 µM

## O=C(Nc1ccc(-c2cc3ccc(O)cc3oc2=O)cc1)c1ccco1 [Compound 5a, 3-[4-(furan-2-formylamino)-phenyl]-7-hydroxy-coumarin]
[1]; [3]
  Total movement distance: 194.2 ± 6.5 cm
[1]; [4]
  Total movement distance: 188.8 ± 14.7 cm
[1]; [5]
  Total movement distance: 215.5 ± 17.1 cm
[1]; [6]
  Total movement distance: 187.2 ± 6.2 cm
[2]
  IC50: 2.49 ± 0.151 µM
  SI: selectivity index (IC50 BuChE/IC50 AChE): 3.842
  AChE inhibitory activity (in words): moderate to excellent AChE inhibitory activity
BuChE from equine serum
  IC50: 9.55 ± 0.455 µM

## COc1cccc2cc(-c3ccc(NC(=O)c4ccc5ccccc5c4)cc3)c(=O)oc12 [Compound 7b, 3-[4-(2-naphthoylamino)-phenyl]-8-methoxy-coumarin]
[1]; [4]
  Total movement distance: 278.4 ± 11.4 cm
[1]; [5]
  Total movement distance: 227.4 ± 8.1 cm
[1]; [6]
  Total movement distance: 272.1 ± 10.4 cm
[2]
  IC50: 0.128 ± 0.011 µM
  SI: selectivity index (IC50 BuChE/IC50 AChE): 341.87
  Selectivity AChE/BuChE (in words): highly selective for AChE
  AChE inhibitory activity (in words): moderate to excellent AChE inhibitory activity
BuChE from equine serum
  IC50: 43.8 ± 1.97 µM

## COc1cccc2cc(-c3ccc(NC(=O)c4cccs4)cc3)c(=O)oc12 [Compound 7d, 3-[4-(thiophene-2-formylamino)-phenyl]-8-methoxy-coumarin]
[1]; [3]
  Total movement distance: 202.9 ± 6.2 cm
[1]; [4]
  Total movement distance: 208.4 ± 9.7 cm
[1]; [5]
  Total movement distance: 224.2 ± 9.2 cm
[1]; [6]
  Total movement distance: 235.4 ± 11.4 cm
[1]
  Effect on behavioural inhibition of zebrafish induced by aluminium trichloride (in words): certain therapeutic effects; also recorded: could alleviate the behavioural inhibition symptoms
[2]
  IC50: 6.63 ± 0.12 µM
  SI: selectivity index (IC50 BuChE/IC50 AChE): 0.700
  AChE inhibitory activity (in words): moderate to excellent AChE inhibitory activity
BuChE from equine serum
  IC50: 4.65 ± 0.245 µM
